Data published in the CheMixHub ionic liquid set.

Experiment: xn = mol fraction of the nth substance listed

C[N+]1(CCOCCOCCOCCOCC[N+]2(C)CCCC2)CCCC1.N#C[N-]C#N.N#C[N-]C#N + CC[n+]1ccn(C)c1.N#C[N-]C#N + O=S(=O)([N-]S(=O)(=O)C(F)(F)F)C(F)(F)F.[Li+]
100 kPa, x1 = 0.2352, x2 = 0.6725
Conditions | electrical conductivity [S/m]
298 K | 0.37
303 K | 0.435
313 K | 0.646
323 K | 0.941
333 K | 1.2
343 K | 1.51

C[N+]1(CCOCCOCC[N+]2(C)CCCC2)CCCC1.N#C[N-]C#N.N#C[N-]C#N + CC[n+]1ccn(C)c1.N#C[N-]C#N + O=S(=O)([N-]S(=O)(=O)C(F)(F)F)C(F)(F)F.[Li+]
electrical conductivity [S/m], 100 kPa
Conditions | 298 K | 303 K | 313 K | 323 K | 333 K | 343 K
x1 = 0.2606, x2 = 0.6156 | 0.561 | 0.658 | 0.963 | 1.27 | 1.61 | 1.94
x1 = 0.2713, x2 = 0.6408 | 0.911 | 1.01 | 1.37 | 1.71 | 2.12 | 2.54

C[N+]1(CCOCC[N+]2(C)CCCC2)CCCC1.N#C[N-]C#N.N#C[N-]C#N + CC[n+]1ccn(C)c1.N#C[N-]C#N + O=S(=O)([N-]S(=O)(=O)C(F)(F)F)C(F)(F)F.[Li+]
100 kPa, x1 = 0.2938, x2 = 0.621
Conditions | electrical conductivity [S/m]
298 K | 0.622
303 K | 0.76
313 K | 1.04
323 K | 1.38
333 K | 1.76
343 K | 2.24

COC(=O)OC + CC[n+]1ccn(C)c1.O=S(=O)([N-]S(=O)(=O)C(F)(F)F)C(F)(F)F
101.3 kPa, x2 = 0
Conditions | viscosity [mPa·s]
288.15 K | 0.668
293.15 K | 0.628
298.15 K | 0.588
303.15 K | 0.553
308.15 K | 0.524

C[N+]1(CCOCCOCC[N+]2(C)CCCC2)CCCC1.N#C[N-]C#N.N#C[N-]C#N + CC[n+]1ccn(C)c1.O=S(=O)([N-]S(=O)(=O)C(F)(F)F)C(F)(F)F + O=S(=O)([N-]S(=O)(=O)C(F)(F)F)C(F)(F)F.[Li+]
100 kPa, x1 = 0.4178, x2 = 0.4469
Conditions | electrical conductivity [S/m]
298 K | 0.244
303 K | 0.317
313 K | 0.431
323 K | 0.64
333 K | 0.832
343 K | 1.1

CC[n+]1ccn(C)c1.N#C[S-] + CC[n+]1ccn(C)c1.O=S(=O)([O-])C(F)(F)F
Conditions | viscosity [mPa·s]
293 K, 100 kPa, x1 = 0.5 | 36.4

OCCN(CCO)CCO + CC[n+]1ccn(C)c1.O=S(=O)([O-])C(F)(F)F
100 kPa
Conditions | electrical conductivity [S/m] | viscosity [mPa·s]
293.15 K, x1 = 0.084 | – | 52.9
298.15 K, x1 = 0.426 | 0.357 | 65.6
298.15 K, x1 = 0.539 | 0.232 | 87.6
298.15 K, x1 = 0.875 | 0.019 | 320
298.15 K, x1 = 0.969 | 0.00321 | –
298.15 K, x2 = 0.003 | 0.000411 | –
298.15 K, x2 = 0.006 | 0.00071 | –
298.15 K, x2 = 0.017 | 0.00188 | –
303.15 K, x1 = 0.084 | – | 36.1
303.15 K, x1 = 0.167 | – | 37
303.15 K, x1 = 0.641 | – | 87.1
303.15 K, x2 = 0.006 | – | 400
313.15 K, x1 = 0.167 | 1.19 | 26
313.15 K, x1 = 0.723 | 0.185 | 65.8
313.15 K, x2 = 0.003 | 0.00117 | –
313.15 K, x2 = 0.006 | 0.00204 | 198.3

Cc1ncc(C[n+]2csc(CCO)c2C)c(N)n1.Cl.[Cl-] + CC[n+]1ccn(C)c1.O=S(=O)([O-])O + O
viscosity [mPa·s], 100 kPa
Conditions | x1 = 0.0002695, x2 = 0 | x1 = 0.0005398, x2 = 0 | x1 = 0.0008099, x2 = 0 | x1 = 0.00108, x2 = 0 | x1 = 0.00135, x2 = 0 | x1 = 0.00162, x2 = 0 | x1 = 0.001889, x2 = 0
293.15 K | 1.01 | 1.02 | 1.03 | 1.03 | 1.04 | 1.05 | 1.06
298.15 K | 0.9 | 0.91 | 0.92 | 0.93 | 0.93 | 0.94 | 0.95
303.15 K | 0.81 | 0.81 | 0.82 | 0.83 | 0.84 | 0.85 | 0.86
308.15 K | 0.73 | 0.73 | 0.74 | 0.75 | 0.76 | 0.76 | 0.77
313.15 K | 0.66 | 0.67 | 0.68 | 0.68 | 0.69 | 0.7 | 0.71
318.15 K | 0.61 | 0.61 | 0.62 | 0.63 | 0.64 | 0.64 | 0.65

O=C1O[C@H]([C@@H](O)CO)C(O)=C1O + CC[n+]1ccn(C)c1.O=S(=O)([O-])O + O
viscosity [mPa·s], 100 kPa
Conditions | x1 = 0.0002709, x2 = 0 | x1 = 0.0005412, x2 = 0 | x1 = 0.0008101, x2 = 0 | x1 = 0.001079, x2 = 0 | x1 = 0.001351, x2 = 0 | x1 = 0.001618, x2 = 0 | x1 = 0.00189, x2 = 0
293.15 K | 1.01 | 1.01 | 1.02 | 1.02 | 1.03 | 1.03 | 1.04
298.15 K | 0.9 | 0.9 | 0.91 | 0.91 | 0.92 | 0.92 | 0.93
303.15 K | 0.8 | 0.81 | 0.81 | 0.82 | 0.82 | 0.83 | 0.84
308.15 K | 0.72 | 0.73 | 0.73 | 0.74 | 0.74 | 0.75 | 0.76
313.15 K | 0.66 | 0.66 | 0.67 | 0.67 | 0.68 | 0.68 | 0.69
318.15 K | 0.61 | 0.61 | 0.62 | 0.62 | 0.63 | 0.63 | 0.64
